Source: patent publication US20240368122A1, “JAK2 INHIBITORS AND METHODS OF USE THEREOF” (RELAY THERAPEUTICS, INC., priority 2021, published 2024)
Like-named read-outs stand apart in the source and are kept apart here.

How the values were obtained:
[1] = tested on: TF1 JAK2 V617F STAT5 reporter; test: Cellular TF1 STAT5 assay (luciferase reporter), JAK2 V617F; type: cell-based; details: read-out: Cell PD TF1 V617F STAT5 (IC50)
In short: (§1)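 Compounds were dispensed as 1000× DMSO stocks (10 mM top, 1:3 steps), then V617F JAK2 TF1 cells carrying a STAT3 or STAT5 luciferase reporter were added. After 18-20 h at 37 °C, ONE-glo reagent was added and luminescence measured.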

[2] = target: T1, JAK2 JH2 WT (V536-D812) [W659A, W777A, F794H solubilizing mutations] (Homo sapiens, UniProt O60674, F794H/W659A/W777A); test: Surface Plasmon Resonance (SPR) binding assay, JAK2 JH2 domain
T1 construct: **JAK2 JH2 WT (V536-D812) [W659A, W777A, F794H solubilizing mutations]; C-thrombin-avi-His6; thrombin cleavage site (C); His6 (C); purchased Biortus
In short: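 Kinetics came from 1:1 fits of single-cycle runs at 20 °C: four 3-fold dilutions from 5 uM for JH1 or 500 nM for JH2, 60 s association, and 300 s or 1200 s dissociation respectively. Protein was freshly captured per compound in the presence of 10 uM stabilizer compound, with running buffer of pH 7.5 HEPES/NaCl/glycerol/DTT plus 2% DMSO.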

[3] = tested on: TF1 JAK2 V617F STAT3 reporter; test: Cellular TF1 STAT3 assay (luciferase reporter), JAK2 V617F; type: cell-based; details: read-out: Cell PD-TF1 JAK2 V617F STAT3 (IC50)
In short: as §1

[4] = Homo sapiens, TF-1, TF1 cells, JAK2 V617F

T1 sequence (O60674 536-812 W659A/W777A/F794H): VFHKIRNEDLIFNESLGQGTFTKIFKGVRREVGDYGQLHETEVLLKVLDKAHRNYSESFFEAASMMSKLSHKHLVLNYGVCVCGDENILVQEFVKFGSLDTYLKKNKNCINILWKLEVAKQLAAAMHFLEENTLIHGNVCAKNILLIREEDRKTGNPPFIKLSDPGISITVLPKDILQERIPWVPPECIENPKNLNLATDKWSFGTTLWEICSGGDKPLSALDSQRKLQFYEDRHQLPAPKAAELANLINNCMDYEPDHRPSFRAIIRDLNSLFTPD

| Structure (SMILES) | IC50 ([1]; TF1 JAK2 V617F) | Kd ([2]; SPR, JAK2 JH2 domain) | IC50 ([3]; TF1 JAK2 V617F) | IC50 [1, 4] | Kd [2] | IC50 [3, 4] |
| --- | --- | --- | --- | --- | --- | --- |
| CNC(=O)c1nnc(NC(=O)C2CC2)cc1Nc1ccc(C)c(-c2cnc(C(=O)N(C)C[C@H]3CCN(C)C3=O)c(F)c2)c1OC (single isomer, unassigned) [Compound 117] | 5000 to 100000 nM | 0.01 to 10 nM | 5000 to 100000 nM | – | – | – |
| CNC(=O)c1nnc(NC(=O)C2CC2)cc1Nc1ccc(C)c(-c2ccc(C(=O)N(C)Cc3ncc(COC)s3)nc2)c1OC [Compound 317] | – | – | – | 50 to 500 nM | 0.01 to 10 nM | 500 to 5000 nM |
| CNC(=O)c1nnc(NC(=O)C2CC2)cc1Nc1cccc(-c2cnn(C3CN(Cc4cccc(C#CC(C)(C)O)n4)C3)c2)c1OC [Compound 259] | – | – | – | 50 to 500 nM | 0.01 to 10 nM | 50 to 500 nM |
| CNC(=O)c1nnc(NC(=O)C2CC2)cc1Nc1cccc(-c2ccc(C(=O)N(C)Cc3cc(P(C)(C)=O)ccn3)nc2)c1OC [Compound 380] | – | – | – | 5000 to 100000 nM | 0.01 to 10 nM | 5000 to 100000 nM |
| CNC(=O)c1nnc(NC(=O)C2CC2)cc1Nc1cccc(-c2cnn(C3CN(Cc4cn(C)nc4C)C3)c2)c1OC [Compound 213] | – | – | – | 500 to 5000 nM | 0.01 to 10 nM | 500 to 5000 nM |
| CNC(=O)c1nnc(NC(=O)C2CC2)cc1Nc1cccc(-c2cnn(C3CN(C(C)c4cccc(C#N)n4)C3)c2)c1OC (racemic) [Compound 227] | – | – | – | 500 to 5000 nM | 0.01 to 10 nM | 500 to 5000 nM |
| CNC(=O)c1nnc(NC(=O)C2CC2)cc1Nc1cccc(-c2ccc(C(=O)N(C)Cc3cn(C)nn3)nc2)c1OC [Compound 100] | 500 to 5000 nM | 0.01 to 10 nM | 500 to 5000 nM | – | – | – |
| CNC(=O)c1nnc(NC(=O)C2CC2)cc1Nc1cccc(-c2ccc(C(=O)N(C)C[C@@H]3CCCO3)nc2)c1OC (single isomer, unassigned) [Compound 140] | 5000 to 100000 nM | 10 to 50 nM | 5000 to 100000 nM | – | – | – |
| CNC(=O)c1nnc(NC(=O)C2CC2)cc1Nc1cccc(-c2ccc(C(=O)N(C)[C@@H](C)c3ccn(C)n3)nc2)c1OC (single isomer, unassigned) [Compound 160] | 500 to 5000 nM | 0.01 to 10 nM | 500 to 5000 nM | – | – | – |
| CNC(=O)c1nnc(NC(=O)C2CC2)cc1Nc1cccc(-c2cnn(C3CN(Cc4ncccc4O)C3)c2)c1OC [Compound 365] | – | – | – | 500 to 5000 nM | 0.01 to 10 nM | 500 to 5000 nM |
| CNC(=O)c1nnc(NC(=O)C2CC2)cc1Nc1ccc(Cl)c(-c2ccc(C(=O)N(C)Cc3cc(C#N)n(C)n3)nc2)c1OC [Compound 205] | – | – | – | 50 to 500 nM | 0.01 to 10 nM | 50 to 500 nM |
| CNC(=O)c1nnc(NC(=O)C2CC2)cc1Nc1ccc(C)c(-c2cnc(C(=O)N(C)Cc3ncc(COC)s3)c(F)c2)c1OC [Compound 314] | – | – | – | 50 to 500 nM | 0.01 to 10 nM | 500 to 5000 nM |
| CNC(=O)c1nnc(NC(=O)C2CC2)cc1Nc1cccc(-c2ccc(C(=O)N(C)Cc3cnn(C(F)F)c3C)nc2)c1OC [Compound 298] | – | – | – | 500 to 5000 nM | 0.01 to 10 nM | 500 to 5000 nM |
| CNC(=O)c1nnc(NC(=O)C2CC2)cc1Nc1cccc(-c2ccc(C(=O)N(C)C[C@@H]3CCCC3(F)F)nc2)c1OC (single isomer, unassigned) [Compound 225] | – | – | – | 5000 to 100000 nM | 10 to 50 nM | 5000 to 100000 nM |
| CNC(=O)c1nnc(NC(=O)C2CC2)cc1Nc1cccc(-c2cnn(C3CN(Cc4cccc(P(C)(C)=O)n4)C3)c2)c1OC [Compound 378] | – | – | – | 500 to 5000 nM | 0.01 to 10 nM | 500 to 5000 nM |
| CNC(=O)c1nnc(NC(=O)C2CC2)cc1Nc1cccc(-c2ccc(C(=O)N(C)Cc3ccc(F)cc3)nc2)c1OC [Compound 113] | 500 to 5000 nM | 10 to 50 nM | 500 to 5000 nM | – | – | – |
| CNC(=O)c1nnc(NC(=O)C2CC2)cc1Nc1cccc(-c2cnn(C3CN(Cc4cc(F)ccc4F)C3)c2)c1OC [Compound 128] | 500 to 5000 nM | 0.01 to 10 nM | 500 to 5000 nM | – | – | – |

| Structure (SMILES) | IC50 ([1]; TF1 JAK2 V617F) | Kd ([2]; SPR, JAK2 JH2 domain) | IC50 ([3]; TF1 JAK2 V617F) | IC50 [1, 4] | Kd [2] | IC50 [3, 4] |
| --- | --- | --- | --- | --- | --- | --- |
| CNC(=O)c1nnc(NC(=O)C2CC2)cc1Nc1cccc(-c2cnc(C3CN(Cc4cccn(C)c4=O)C3)nc2)c1OC [Compound 326] | – | – | – | 5000 to 100000 nM | 10 to 50 nM | 5000 to 100000 nM |
| CNC(=O)c1nnc(NC(=O)C2CC2)cc1Nc1cccc(-c2cnn(C3(CC#N)CN(Cc4ccccn4)C3)c2)c1OC [Compound 38] | 5000 to 100000 nM | 10 to 50 nM | 500 to 5000 nM | – | – | – |
| CNC(=O)c1nnc(NC(=O)C2CC2)cc1Nc1cccc(-c2cnn(C3CN(Cc4cccc(Br)n4)C3)c2)c1OC [Compound 201] | – | – | – | 50 to 500 nM | 0.01 to 10 nM | 50 to 500 nM |
| CNC(=O)c1nnc(NC(=O)C2CC2)cc1Nc1cccc(-c2ccc(C(=O)N(C)Cc3cccc(C)n3)nc2)c1OC [Compound 167] | 50 to 500 nM | 0.01 to 10 nM | 50 to 500 nM | – | – | – |
| CNC(=O)c1nnc(NC(=O)C2CC2)cc1Nc1cccc(-c2ccc(C(=O)N(C)Cc3nccc(C#N)n3)nc2)c1OC [Compound 261] | – | – | – | 500 to 5000 nM | 0.01 to 10 nM | 50 to 500 nM |
| CNC(=O)c1nnc(NC(=O)C2CC2)cc1Nc1cc(F)cc(-c2ccc(C(=O)N(C)Cc3cc(C#N)ccn3)nc2)c1OC [Compound 112] | 50 to 500 nM | 0.01 to 10 nM | 50 to 500 nM | – | – | – |
| CNC(=O)c1nnc(NC(=O)C2CC2)cc1Nc1cccc(-c2cc(C3CN(Cc4ccccn4)C3)nn2C)c1OC [Compound 189] | 5000 to 100000 nM | 10 to 50 nM | 5000 to 100000 nM | – | – | – |
| CNC(=O)c1nnc(NC(=O)C2CC2)cc1Nc1cccc(-c2cnc(C(=O)N(C)Cc3ccn(C)n3)c(F)c2)c1OC [Compound 53] | 500 to 5000 nM | 0.01 to 10 nM | 500 to 5000 nM | – | – | – |
| CNC(=O)c1nnc(NC(=O)C2CC2)cc1Nc1cccc(-c2ccc(C(=O)N(C)Cc3cccn(C)c3=O)nc2)c1OC [Compound 23] | 50 to 500 nM | 0.01 to 10 nM | 500 to 5000 nM | – | – | – |
| CNC(=O)c1nnc(NC(=O)C2CC2)cc1Nc1cccc(-c2ccc(C(=O)N(C)Cc3ncc(C#N)s3)nc2)c1OC [Compound 178] | 5000 to 100000 nM | 0.01 to 10 nM | 5000 to 100000 nM | – | – | – |
| CNC(=O)c1nnc(NC(=O)C2CC2)cc1Nc1cccc(-c2ccc(C(=O)N(C)Cc3cc(Cl)ccc3OC)nc2)c1OC [Compound 82] | 500 to 5000 nM | 0.01 to 10 nM | 500 to 5000 nM | – | – | – |
| CNC(=O)c1nnc(NC(=O)OC2CC2)cc1Nc1cccc(-c2cnn(C3CC(Oc4cccc(C#N)n4)C3)c2)c1OC (mixture of isomers) [Compound 345] | – | – | – | 500 to 5000 nM | 0.01 to 10 nM | 5000 to 100000 nM |
| CNC(=O)c1nnc(NC(=O)C2CC2)cc1Nc1cccc(-c2ccc(C3CN(Cc4cccc(C#N)n4)C3)c(OC)c2)c1OC [Compound 361] | – | – | – | 500 to 5000 nM | 50 to 500 nM | 5000 to 100000 nM |
| CNC(=O)c1nnc(NC(=O)C2CC2)cc1Nc1cccc(-c2ccc(C(=O)N(C)Cc3csc(C(C)C)n3)nc2)c1OC [Compound 199] | – | – | – | 50 to 500 nM | 0.01 to 10 nM | 50 to 500 nM |
| CNC(=O)c1nnc(NC(=O)C2CC2)cc1Nc1cccc(-c2ccc(C(=O)N(C)Cc3cn(C4CC4)nc3C)nc2)c1OC [Compound 285] | – | – | – | 500 to 5000 nM | 0.01 to 10 nM | 500 to 5000 nM |
| CNC(=O)c1nnc(NC(=O)C2CC2)cc1Nc1cccc(-c2ccc(C(=O)N(C)Cc3ncc(COC)s3)nc2)c1OC [Compound 244] | – | – | – | 50 to 500 nM | 0.01 to 10 nM | 50 to 500 nM |
| CNC(=O)c1nnc(NC(=O)C2CC2)cc1Nc1cccc(-c2cnn(C3CN(Cc4cccc(C5(O)COC5)n4)C3)c2)c1OC [Compound 382] | – | – | – | 50 to 500 nM | 0.01 to 10 nM | 50 to 500 nM |
